The results in this text go back to PubChem BioAssay AID1959 (Broad Institute, 2009).

Calls of active or inactive are those of the source.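 The calls were made as follows: active = growth-inhibition EC50 no more than tenfold above the top tested dose; inconclusive = flat fit between 30% and 70% inhibition, or unreliable fit; inactive = EC50 more than tenfold above the top tested dose.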

For this assay, the system named is E. coli NEB5alpha growth, BacTiter-Glo luminescence, 4 h. Briefly: antibacterial activity against E. coli NEB5alpha – luminescence, counter-screen for MEX-5/POS-1 RNA-binding inhibitor project, dose response (AID 1959).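 Also: pUC19-transformed ampicillin-resistant cells grown in LB with ampicillin.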 Background: The purpose of a counterscreen is to sort out artefacts and off-target activity.
As usually defined, the EC50 is the midpoint of the concentration-response curve. Regarding `Cc1ccc(CN(C)C(=O)CC2C(=O)NCCN2CC2CCCCC2)cc1` (centres undefined), the EC50 was > 11 µM (inactive). Under `O=[N+]([O-])c1cccc(-c2cn3nc(-c4ccccc4)c(-c4ccccc4)nc3n2)c1` stands > 11 µM (inactive); under `O=C(O)c1cc(-n2cccc2)ccc1N1CCOCC1`, > 11 µM (inactive). Under `C(=N\NC(=Nc1ccccc1)c1ccccn1)/c1ccccn1` stands > 11 µM (inactive).

For `Cc1cc(C(=O)O)ccc1-n1c(C)cc(C=C2C(=O)c3ccccc3C2=O)c1C`, the EC50 is > 11 µM (inactive). Under `Oc1c(C=Nc2ccccc2Cl)[nH]c2ccccc12` stands > 11 µM (inactive); under `COc1ccc(C2C(C#N)=C(/N=C/N3CCOCC3)OC3=C2C(=O)CC(C)(C)C3)cc1OC` (centres undefined), > 11 µM (inactive); under `CCOc1cc(/C=C2\C(=O)NN(c3ccccc3)C2=O)cc([N+](=O)[O-])c1O`, > 11 µM (inactive). Under `O=C1NC(=O)N(c2ccccc2)C(=O)/C1=C\c1ccc2c3c(cccc13)CC2` stands > 11 µM (inactive).

`[O-]/C(=C(\C(=S)NCc1ccco1)[n+]1ccccc1)c1ccccc1Br`: the EC50 is > 11 µM (inactive). Under `O=[N+]([O-])c1cc(-c2ccc([As](=O)(O)O)cc2)ccc1[As](=O)(O)O` stands > 11 µM (inactive); under `CN(C)C1C(=O)C(C(N)=O)=C(O)C2(O)C(=O)C3=C(O)c4c(O)cccc4C(C)(O)C3C(O)C12` (centres undefined), 8.68 µM. Under `Fc1ccc(C2=CC(c3ccco3)n3ncnc3N2)cc1` (centres undefined) stands > 11 µM (inactive); under `CC(C)Sc1nsc2nc(=O)c(/C=C3\C=Nc4ccccc43)c(N)n12`, > 11 µM (inactive). Under `COC(=O)c1ccc(COc2ccc(/C=C(\C#N)c3nc4ccccc4[nH]3)cc2OC)o1` stands > 11 µM (inactive); under `COc1cc(-c2cc(=O)c3c(O)c(OC)c(OC)c(O)c3o2)ccc1O`, > 11 µM (inactive); under `CC1(OC(=O)c2cnc3ccccc3n2)C(=O)C=C2C=C(C3CC3)OC=C2C1=O` (centres undefined), > 11 µM (inactive). On to `O=C(/C=C(\O)c1ccccc1)C(=O)NNC(=O)c1ccccc1[N+](=O)[O-]`, for which the EC50 was > 11 µM (inactive). In the case of `CCOC(=O)N1CCN(c2nc3ccccc3nc2C(C#N)S(=O)(=O)c2ccc(C)cc2)CC1` (centres undefined), the EC50 was > 11 µM (inactive). As to `O=C(NCc1ccccc1)C1Nc2ccc(OC(F)(F)F)cc2C2C=CCC12` (centres undefined), the EC50 is > 11 µM (inactive). With `COc1cccc(OCCn2cc(C=O)c3ccccc32)c1`, the EC50 is > 11 µM (inactive). Under `O=C(O)CCc1ccc(-c2ccccc2)n1-c1cccc(C(=O)O)c1` stands > 11 µM (inactive); under `O=C(N/N=C/c1c(O)n(CCc2ccccc2)c(=O)[nH]c1=O)c1ccncc1`, > 11 µM (inactive); under `O=C(N/N=C\c1c(O)ccc2ccccc12)c1cncc(Br)c1`, > 11 µM (inactive).

For the molecule `Cc1cccn2c(=O)c3cc(C(=O)NCc4ccco4)c(=N)n(C(C)C)c3nc12`, the EC50 is > 11 µM (inactive). Under `NC(=O)C1(N2CCCCC2)CCN(Cc2nc(-c3cccs3)no2)CC1` stands > 11 µM (inactive); under `C[C@@H]1Cc2c(O)c(O)cc(O)c2C(=O)O1`, > 11 µM (inactive).

`Cc1ccc(N/C=C2/Sc3ccccc3NC2=O)cc1`: the EC50 is > 11 µM (inactive). Under `CCOC(=O)Cn1c2ccc(OC)cc2c2nc3ccccc3nc21` stands > 11 µM (inactive). Under `Nc1ccc2c(c1)C/C(=C/c1ccco1)C2=O` stands > 11 µM (inactive); under `COc1cc(C2C(C#N)=C(N)OC3=C2C(=O)CC(C)(C)C3)cc([N+](=O)[O-])c1O` (centres undefined), > 11 µM (inactive). Under `Cc1n[nH]c(C)c1S(=O)(=O)N1CCCC(C(=O)Nc2ccc(Br)cc2)C1` (centres undefined) stands > 11 µM (inactive); under `CC(=O)N(C1=C(Cl)C(=O)c2ccccc2C1=O)C1CCCCC1`, > 11 µM (inactive); under `COc1ccc(CCCc2nc3ccccc3[nH]2)cc1`, > 11 µM (inactive). For the molecule `COc1ccc(CCNC(=O)c2nn(C)c3c2CS(=O)(=O)c2ccccc2-3)cc1OC`, the EC50 was > 11 µM (inactive). Under `COc1ccc(OC)c(N2C(=O)/C(=C/c3ccco3)C(=O)NC2=S)c1` stands > 11 µM (inactive); under `Cc1c(NC(=O)CSc2ccc(Cl)cc2)cccc1-c1nc2cc(Cl)ccc2o1`, > 11 µM (inactive). Under `S=C(NCc1ccncc1)Nc1ccc(Cl)cc1Cl` stands > 11 µM (inactive); under `CC(=O)/C(N=Nc1nc2c([nH]1)c(=O)n(C)c(=O)n2C)=C(\C)O`, > 11 µM (inactive); under `COc1ccc(N=C(C)c2sc3ccccc3c2O)cc1`, > 11 µM (inactive). Under `NS(=O)(=O)c1ccc(-c2cccc(/C=C3\SC(=O)NC3=O)c2)cc1` stands > 11 µM (inactive); under `COc1ccc(/C(C)=N/Nc2nc3ccccc3nc2C)cc1OC`, > 11 µM (inactive); under `O=c1[nH]c(=O)n(CCc2ccc(F)cc2)c(O)c1C=NCCCn1ccnc1`, > 11 µM (inactive). For `Cn1c(O)c(C=Nc2ccc(N3CCOCC3)cc2)c(=O)n(C)c1=S`, the EC50 is > 11 µM (inactive).

With `COc1ccc(NC(=O)/C=C/c2cccc(Br)c2)cn1`, the EC50 was > 11 µM (inactive).

As to `O=C1N=c2ccc([N+](=O)[O-])cc2=C1c1sc(=O)[nH]c1O`, the EC50 was > 11 µM (inactive). Under `CC1(OC(=O)c2ccco2)C(=O)C=C2C=C(C3CC3)OC=C2C1=O` (centres undefined) stands > 11 µM (inactive).

Consider `CC(=O)c1ccc(-c2ccc(/C=C(/Sc3n[nH]c(C)n3)C(=O)O)o2)cc1`, for which the EC50 was > 11 µM (inactive).

On to `CCOc1cc2c(cc1/C=C(/C#N)c1ccc(C(=O)O)cc1)OCO2`, for which the EC50 is > 11 µM (inactive). Under `O=C(O)c1ccccc1-c1ccc(C=C2C(=O)N(c3ccccc3)C(=S)N(c3ccccc3)C2=O)o1` stands > 11 µM (inactive).

For `CC1(C)CC(=O)C2=C(C1)OC(N)=C(C#N)C21C(=O)N2CCCc3cccc1c32` (centres undefined), the EC50 is > 11 µM (inactive). Consider `O=C1C2CC=C(Cl)CC2C(=O)N1CCCCCCN1C(=O)C2CC=C(Cl)CC2C1=O` (centres undefined), for which the EC50 is > 11 µM (inactive). Under `CN(C)c1ccc(/C=C2\N=C(C(C)(C)C)OC2=O)cc1` stands > 11 µM (inactive); under `COc1cccc(N=Nc2c(=O)[nH]n3c(=O)cc(C)[nH]c23)c1`, > 11 µM (inactive). For the molecule `COc1ccccc1C1C(C(C)=O)=C(C)N=c2s/c(=C\c3cc(OC)c(OC)c(OC)c3)c(=O)n21` (centres undefined), the EC50 was > 11 µM (inactive). Under `COC1(OC)N=C(N)C2(C#N)C(c3ccc4c(c3)OCO4)C12C#N` (centres undefined) stands > 11 µM (inactive). As for `CN1CCN(/C=N/C2=C(C#N)C(c3ccccc3)C3=C(CC(C)(C)CC3=O)O2)CC1` (centres undefined), the EC50 is > 11 µM (inactive). Regarding `COc1cccc(NC(=O)C(=O)c2cn(CC(=O)N3CCOCC3)c3ccccc23)c1`, the EC50 was > 11 µM (inactive).

For `CCOC(=O)c1c(/N=C/C2C(=O)NC(=S)NC2=O)sc(C)c1C`, the EC50 was > 11 µM (inactive). Under `COC/C=C/C1=CC2=CC(=O)C(C)(OC(=O)C3CCCC3)C(=O)C2=CO1` (centres undefined) stands > 11 µM (inactive); under `CCN(CC)C(=O)c1cc2c(=O)c3cc(Cl)ccc3oc2nc1C`, > 11 µM (inactive). Regarding `O=C(Cn1cncn1)N/N=C/c1c2ccccc2cc2ccccc12`, the EC50 is > 11 µM (inactive). Under `Cc1cccc(S(=O)(=O)C(C#N)c2nc3ccccc3nc2N2CCOCC2)c1` (centres undefined) stands > 11 µM (inactive); under `COc1cc(/C=N/Nc2nc(=O)[nH]nc2C)cc([N+](=O)[O-])c1O`, > 11 µM (inactive); under `COc1ccc(NC(=O)Nc2ccc(OCc3ccccc3)cc2)cn1`, > 11 µM (inactive).

`O=C(N=C1SC2CS(=O)(=O)CC2N1c1ccccc1)C1CC1` (centres undefined): the EC50 is > 11 µM (inactive).

On to `CCOP(=O)(OCC)C(Nc1cccc([N+](=O)[O-])c1)c1ccccc1` (centres undefined), for which the EC50 was > 11 µM (inactive). Under `C=Cc1c(C)c2cc3[nH]c(cc4nc(cc5nc(cc1[nH]2)C(C)=C5CCC(=O)O)C(CCC(=O)O)=C4C)c(C)c3C=C` stands > 11 µM (inactive); under `CCCCN1C(=O)/C(=C2/Sc3ccccc3N2C)S/C1=N\c1ncn[nH]1`, > 11 µM (inactive); under `COc1cc2c3nnc(-c4ccccc4)c-3cn(Cc3ccc(F)cc3)c2cc1OC`, > 11 µM (inactive). Under `COc1cc(/C=N/Nc2nc(=O)[nH]nc2C)ccc1O` stands > 11 µM (inactive); under `CC1(C)Cc2c(cnn2-c2cccc(F)c2)C(NC(=O)CSc2ccccn2)C1` (centres undefined), > 11 µM (inactive). Regarding `Cc1ccc(/C=C2/Sc3ccc(C(=O)N4CCC5(CC4)OCCO5)cc3NC2=O)cc1`, the EC50 is > 11 µM (inactive). With `NC(=O)c1c(NC(=O)c2ccccc2)sc2c1CCN(Cc1ccccc1)C2`, the EC50 is > 11 µM (inactive).

With `O=C(O)c1ccc(-n2cccc2/C=C2/SC(=O)N(CC(=O)N3CCCC3)C2=O)cc1`, the EC50 was > 11 µM (inactive).

In the case of `O=C(CN1C(=O)/C(=C\C=C\c2ccccc2)SC1=S)Nc1ccc(F)cc1`, the EC50 is > 11 µM (inactive). Under `O=c1[nH]c(=O)n(-c2ccc(Br)cc2)c(O)c1C=NCCN1CCCCC1` stands > 11 µM (inactive); under `CC1C(=O)NN=C1C(=O)N/N=C/c1ccco1` (centres undefined), > 11 µM (inactive). Under `C=CCn1c(=O)/c(=C/c2ccc(C)o2)s/c1=C(/C#N)C(=O)c1ccccc1` stands > 11 µM (inactive); under `O=C(/C=C/c1ccco1)NC(=S)NNC(=O)c1ccco1`, > 11 µM (inactive). Under `CCOc1cc(C(c2c(C)[nH][nH]c2=O)c2c(C)[nH][nH]c2=O)cc([N+](=O)[O-])c1O` stands > 11 µM (inactive); under `NS(=O)(=O)c1ccc(-c2ccc(/C=C3\SC(=O)NC3=O)o2)cc1`, > 11 µM (inactive); under `CCCCNC(=S)NNC(=O)c1cc(C)on1`, > 11 µM (inactive). Consider `O=[N+]([O-])c1cccc(/C=C/c2nc(C=Nc3ccccc3)c(O)o2)c1`, for which the EC50 was > 11 µM (inactive).
